Data set [1] concerns the target ATP-dependent translocase ABCB1 (Homo sapiens, UniProt P08183). Nature of the data set: (§1) TP_TRANSPORTER: Northern blot from primary hepatocytes. The class given is functional, cell-based, Hepatocyte.
In data set [2] the target is ATP-dependent translocase ABCB1 (Rattus norvegicus, UniProt P43245). Described as §1. The data set is classed as functional, cell-based, Hepatocyte.

Structures are written as SMILES.

We go through one molecule from ChEMBL document CHEMBL2074376, “Differential regulation of mdr genes in response to 2-acetylaminofluorene treatment in cultured rat and human hepatocytes” (Carcinogenesis, 1996).

Sequence of ATP-dependent translocase ABCB1 (Homo sapiens, UniProt P08183) (P08183 whole entry): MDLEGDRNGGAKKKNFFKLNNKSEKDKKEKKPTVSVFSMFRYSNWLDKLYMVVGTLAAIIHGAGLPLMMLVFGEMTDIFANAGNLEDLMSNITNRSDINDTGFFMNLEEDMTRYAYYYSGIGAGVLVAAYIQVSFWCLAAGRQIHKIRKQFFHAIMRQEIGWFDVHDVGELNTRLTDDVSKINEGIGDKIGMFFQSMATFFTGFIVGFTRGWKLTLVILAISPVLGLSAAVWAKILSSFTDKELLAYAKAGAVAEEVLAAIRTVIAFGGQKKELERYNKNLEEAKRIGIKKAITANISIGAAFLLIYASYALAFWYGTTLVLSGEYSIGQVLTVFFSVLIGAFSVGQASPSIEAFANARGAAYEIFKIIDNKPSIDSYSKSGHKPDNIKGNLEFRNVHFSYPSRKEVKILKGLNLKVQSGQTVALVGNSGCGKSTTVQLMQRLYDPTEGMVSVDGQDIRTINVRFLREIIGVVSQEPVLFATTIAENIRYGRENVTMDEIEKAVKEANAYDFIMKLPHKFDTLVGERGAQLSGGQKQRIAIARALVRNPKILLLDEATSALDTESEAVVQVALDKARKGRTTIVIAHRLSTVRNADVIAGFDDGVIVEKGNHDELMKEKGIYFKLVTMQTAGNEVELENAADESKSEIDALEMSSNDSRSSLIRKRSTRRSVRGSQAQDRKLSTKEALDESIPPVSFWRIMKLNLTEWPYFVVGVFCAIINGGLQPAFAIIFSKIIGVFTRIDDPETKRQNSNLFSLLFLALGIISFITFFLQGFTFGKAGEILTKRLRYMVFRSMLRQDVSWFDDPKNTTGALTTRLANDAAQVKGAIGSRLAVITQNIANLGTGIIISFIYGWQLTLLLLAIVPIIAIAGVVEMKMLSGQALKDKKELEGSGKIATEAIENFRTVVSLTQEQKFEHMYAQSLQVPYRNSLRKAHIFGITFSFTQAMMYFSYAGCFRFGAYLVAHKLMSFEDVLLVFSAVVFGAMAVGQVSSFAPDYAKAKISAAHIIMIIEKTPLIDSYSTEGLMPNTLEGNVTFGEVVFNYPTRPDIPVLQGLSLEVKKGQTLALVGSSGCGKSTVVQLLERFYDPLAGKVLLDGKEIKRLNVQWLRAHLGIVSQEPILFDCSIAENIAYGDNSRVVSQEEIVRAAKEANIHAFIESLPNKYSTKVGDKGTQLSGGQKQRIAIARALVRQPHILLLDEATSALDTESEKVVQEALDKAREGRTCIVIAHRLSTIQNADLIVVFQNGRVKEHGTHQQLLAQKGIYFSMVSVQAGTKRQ
Sequence of ATP-dependent translocase ABCB1 (Rattus norvegicus, UniProt P43245) (P43245 whole entry): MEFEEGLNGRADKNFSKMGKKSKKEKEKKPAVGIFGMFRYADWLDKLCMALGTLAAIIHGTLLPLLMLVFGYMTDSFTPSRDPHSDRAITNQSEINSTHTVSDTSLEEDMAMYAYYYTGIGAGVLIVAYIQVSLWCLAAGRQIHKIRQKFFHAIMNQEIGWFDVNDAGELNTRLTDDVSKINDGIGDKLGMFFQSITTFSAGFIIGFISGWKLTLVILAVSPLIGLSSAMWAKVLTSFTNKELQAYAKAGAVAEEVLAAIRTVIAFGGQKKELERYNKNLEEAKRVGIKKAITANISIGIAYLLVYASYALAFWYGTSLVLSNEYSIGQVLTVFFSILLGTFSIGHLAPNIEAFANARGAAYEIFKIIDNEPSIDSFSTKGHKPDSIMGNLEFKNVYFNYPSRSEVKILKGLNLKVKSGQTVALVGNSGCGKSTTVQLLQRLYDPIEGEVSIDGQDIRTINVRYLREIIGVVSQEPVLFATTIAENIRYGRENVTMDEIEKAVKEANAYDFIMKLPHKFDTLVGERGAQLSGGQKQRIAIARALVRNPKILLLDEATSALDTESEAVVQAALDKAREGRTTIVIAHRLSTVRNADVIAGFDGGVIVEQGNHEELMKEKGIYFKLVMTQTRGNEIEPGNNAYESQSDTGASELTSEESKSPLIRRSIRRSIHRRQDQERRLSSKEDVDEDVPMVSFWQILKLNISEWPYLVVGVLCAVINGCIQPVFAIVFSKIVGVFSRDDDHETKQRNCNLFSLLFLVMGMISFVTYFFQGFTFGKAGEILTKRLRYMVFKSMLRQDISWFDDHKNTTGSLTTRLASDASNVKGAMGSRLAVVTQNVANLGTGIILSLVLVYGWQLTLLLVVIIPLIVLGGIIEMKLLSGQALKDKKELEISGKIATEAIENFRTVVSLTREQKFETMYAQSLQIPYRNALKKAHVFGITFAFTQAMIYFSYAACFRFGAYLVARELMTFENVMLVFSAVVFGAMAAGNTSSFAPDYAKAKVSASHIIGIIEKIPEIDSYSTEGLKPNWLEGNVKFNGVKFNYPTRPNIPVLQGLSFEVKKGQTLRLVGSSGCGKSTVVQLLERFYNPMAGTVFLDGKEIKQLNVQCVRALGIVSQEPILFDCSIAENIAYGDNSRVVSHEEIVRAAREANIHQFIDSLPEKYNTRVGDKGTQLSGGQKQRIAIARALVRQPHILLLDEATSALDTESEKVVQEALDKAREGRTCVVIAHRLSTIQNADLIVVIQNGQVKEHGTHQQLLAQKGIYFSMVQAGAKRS

With `CC(=O)Nc1ccc2c(c1)Cc1ccccc1-2` [2-ACETYLAMINOFLUORENE], the Activity entry is “is not an inducer [-]” in data set [1] and “inducer [+]” in data set [2].
